The target of assay [1] is human α5β3γ2 receptors (α5-GABAA receptor) (Homo sapiens (Human), UniProt P18507+P31644). As to the kind of experiment: 3H-flunitrazepam competition binding, human α5β3γ2 GABAA receptor. Particulars: HEK293 cell membranes, 1 nM 3H-flunitrazepam; read-out: α5-GABAAR Ki. The procedure, abridged: (§1)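 Radioligand displacement of 1 nM 3H-flunitrazepam from membranes of HEK293 lines stably expressing the human subtypes, 1 h at room temperature, compound in 8-point 4-fold series. Bound label on GF/C filters counted by scintillation; Ki derived from fitted IC50, with flumazenil as low control.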

The next assay concerns the target human α1β3γ2 receptors (Homo sapiens (Human), UniProt P14867+P18507). The experiment in a line: 3H-flunitrazepam competition binding, human α1β3γ2 GABAA receptor. Particulars: HEK293 cell membranes, 1 nM 3H-flunitrazepam; read-out: Ki α1. The essentials:
as §1

Another assay has as its target human α3β3γ2 receptors (Homo sapiens (Human), UniProt P18507+P34903). The experiment in a line: 3H-flunitrazepam competition binding, human α3β3γ2 GABAA receptor. Particulars: HEK293 cell membranes, 1 nM 3H-flunitrazepam; read-out: Ki α3. The procedure, abridged: as §1

The source of these data is US20250136581A1, “SUBSTITUTED TRIAZOLE DERIVATIVE, PREPARATION METHOD THEREFOR, PHARMACEUTICAL COMPOSITION THEREOF, AND USE THEREOF” (SHANGHAI SIMR BIOTECHNOLOGY CO., LTD., priority 2021, published 2025).

For orientation: Ki means the dissociation constant of the complex between target and ligand, obtained from inhibition or displacement.

`Cc1nnn(-c2ccc(C(F)F)cc2)c1COc1ccc(N2CC(=O)NC(C)C2)nn1` (stereo not drawn) [Example 6, 4-(6-((1-(4-(Difluoromethyl)phenyl)-4-methyl-1H-1,2,3-triazol-5-yl)methoxy)pyridazin-3-yl)-6-methylpiperazin-2-one]: the Ki in assay [1] was determined as 0.91 nM; at human α1β3γ2 receptors, 59.8 nM; on human α3β3γ2 receptors it was 14.1 nM.
